According to ChEMBL document CHEMBL5620382, “Fluoroindole chalcone analogues targeting the colchicine binding site of tubulin for colorectal oncotherapy” (Eur J Med Chem, 2023):
Activity calls are given as the source filed them. No cut-off for these calls is given here.

Assays:
[1] = test system: HCT-116; assay: Induction of cell cycle arrest in human HCT-116 cells […] assessed as accumulation of cells at G2/M phase at 2.5 to 10 nM by flow cytometry analysis; type: functional, cell-based; conditions: dose 2.5-10 nM
[2] = Toxicity in BALB/c mouse xenografted with human HCT116 cells assessed as change in body weight at 1.5 to 3 mg/kg, ip thrice a week for three weeks; type: organism-based, HCT-116; conditions: in vivo, 504 h, dose 1.5-3 mg/kg, time 3 weeks
[3] = test system: HCT-116; assay: Induction of apoptosis in human HCT116 cells assessed as dead cells at 2.5 to 20 nM measured after 24 hrs by PI/Annexin V-FITC staining based flow cytometry; type: functional, cell-based; conditions: dose 2.5-20 nM
[4] = test system: Mus musculus; assay: Antitumor activity against C57B/6-APCmin/+ mouse model assessed as increase in phosphorylation of eIF2alpha in tumors at 3 mg/kg, ip treated for 45 days relative to control; type: functional, organism-based; conditions: time 45.0 day
[5] = test system: HCT-116; assay: Cytotoxicity against human HCT-116 cells assessed as growth inhibition measured after 48 hrs by CCK-8 assay; type: functional
[6] = test system: PC-12; assay: Antiproliferative activity against rat PC12 cells assessed as inhibition of proliferation at 2.5 to 20 nM measured after 24 hrs by CCK-8 assay; type: toxicity, cell-based; conditions: pc-12, 24 h, 0.02 µM, dose 2.5-20 nM
[7] = Toxicity in BALB/c mouse xenografted with human HCT-116 cells assessed as organ toxicity at 3 mg/kg, ip thrice a week for three weeks by […]; type: organism-based; conditions: in vivo, 504 h, time 3 weeks
[8] = test system: HCT-116; assay: Induction of endoplasmic reticulum (ER) stress in human HCT-116 cells assessed as upregulation of cleaved-caspase 3 at 10 to 20 nM measured after 24 hrs by Western blot analysis; type: functional, cell-based; conditions: dose 10-20 nM
[9] = target: T1, Tubulin (Homo sapiens) (UniProt P68371+Q9H4B7+P0DPH7+P68366+Q13509+Q71U36+P04350+Q3ZCM7+P07437+P68363+Q9BQE3+Q6PEY2+Q13885+Q9BVA1+Q9BUF5); assay: Disruption of microtubule assembly in human HCT-116 cells assessed as reduced/disorganized microtubule network measured after 24 hrs by high-resolution microscopy; type: cell-based
[10] = test system: HCT-116; assay: Anti-tumor activity against human HCT-116 cells xenografted in BALB/c mouse assessed as apoptosis in tumor section at 3 mg/kg, ip thrice a week for three weeks by TUNEL staining based assay; type: functional, organism-based; conditions: time 3.0 weeks
[11] = test system: CT26; assay: Disruption of microtubule assembly in mouse CT26 cells assessed as reduced/disorganized microtubule network measured after 24 hrs by high-resolution microscopy; type: functional, cell-based
[12] = test system: HCT-116; assay: Induction of mitochondrial damage in human HCT-116 cells at 10 to 20 nM measured after 24 hrs by transmission electron microscope (TEM) analysis; type: functional, cell-based; conditions: dose 10-20 nM
[13] = test system: CT26; assay: Induction of endoplasmic reticulum (ER) stress in mouse CT26 cells assessed as increase in ROS level at 10 to 40 nM measured after 24 hrs by DCFH-DA analysis; type: functional, cell-based; conditions: dose 10-40 nM
[14] = target: T1, Tubulin (Homo sapiens); assay: Inhibition of tubulin polymerization (unknown origin); type: protein-complex assay; conditions: dose 12.5-100 µM
[15] = test system: Colon cancer organoid; assay: Antitumor activity against patient-derived Colorectal cancer organoid model assessed as inhibition of organoid growth by immunofluorescence assay; type: functional, tissue-based; conditions: Homo sapiens
[16] = test system: Mus musculus; assay: Antitumor activity against C57B/6-APCmin/+ mouse model assessed as increase in phosphorylation of IRE1alpha in tumors at 3 mg/kg, ip treated for 45 days relative to control; type: functional, organism-based; conditions: time 45.0 day
[17] = test system: CT26; assay: Induction of endoplasmic reticulum (ER) stress in mouse CT26 cells assessed as increase in ROS level at 20 nM measured after 24 hrs by fluorescent analysis (reference value: 14%); type: functional
[18] = test system: HCT-116; assay: Anti-tumor activity against human HCT-116 cells xenografted in BALB/c mouse assessed as inhibition of cell proliferation in tumor section at 3 mg/kg, ip thrice a week for three weeks by Ki-67 staining based assay; type: functional, organism-based; conditions: time 3.0 weeks
[19] = Toxicity in BALB/c mouse xenografted with human HCT116 cells assessed as side effects at 1.5 to 3 mg/kg, ip thrice a week for three weeks; type: organism-based, HCT-116; conditions: in vivo, 504 h, dose 1.5-3 mg/kg, time 3 weeks
[20] = test system: NCM460; assay: Antiproliferative activity against human NCM460 cells assessed as inhibition of proliferation at 2.5 to 20 nM measured after 24 hrs by CCK-8 assay; type: toxicity, cell-based; conditions: ncm460, 24 h, 0.02 µM, dose 2.5-20 nM
[21] = test system: CT26; assay: Induction of endoplasmic reticulum (ER) stress in mouse CT26 cells assessed as increase in ROS level at 2.5 nM measured after 24 hrs by fluorescent analysis (reference value: 14%); type: functional
[22] = test system: HCT-116; assay: Cytotoxicity against human HCT-116 cells assessed as growth inhibition measured after 24 hrs in presence of GSK2606414 PERK inhibitor by CCK-8 assay; type: functional, cell-based
[23] = species: Homo sapiens; assay: Binding affinity to tubulin mutant (unknown origin) by MST analysis
[24] = Toxicity in C57BL/6-APCmin/+ mouse model assessed as change in body weight at 3 mg/kg, ip treated for 45 days; type: organism-based; conditions: in vivo, 1080 h, time 45 day
[25] = test system: CT26; assay: Antiproliferative activity against mouse CT26 cells assessed as inhibition of proliferation measured after 24 hrs by CCK-8 assay; type: functional, cell-based; conditions: CT26, 24 h
[26] = target: T1, Tubulin (Homo sapiens); assay: Stabilization of microtubule in human HCT-116 cells at […] incubated for 1 hrs by CETSA; type: cell-based
[27] = test system: CT26; assay: Induction of endoplasmic reticulum (ER) stress in mouse CT26 cells assessed as organelle vacuoles at 10 to 20 nM measured after 24 hrs by transmission electron microscope (TEM) analysis; type: functional, cell-based; conditions: dose 10-20 nM
[28] = test system: HCT-116; assay: Cytotoxicity against human HCT-116 cells assessed as growth inhibition at 1.25 to 20 uM measured after 24 hrs in presence of ROS scavenger NAC by CCK-8 assay; type: functional, cell-based; conditions: dose 1.25-20 µM
[29] = test system: HCT-116; assay: Anti-tumor activity against human HCT-116 cells xenografted in BALB/c mouse assessed as increase in necrotic area in tumor section at 3 mg/kg, ip thrice a week for three weeks by H and E staining based assay; type: functional, organism-based; conditions: time 3.0 weeks
[30] = test system: HCT-116; assay: Induction of endoplasmic reticulum (ER) stress in human HCT-116 cells assessed as organelle vacuoles at 10 to 20 nM measured after 24 hrs by transmission electron microscope (TEM) analysis; type: functional, cell-based; conditions: dose 10-20 nM
[31] = test system: HCT-116; assay: Induction of endoplasmic reticulum (ER) stress in human HCT-116 cells assessed as increase in ROS level at 1.25 nM measured after 24 hrs by fluorescent analysis (reference value: 12%); type: functional
[32] = test system: HCT-116; assay: Anti-tumor activity against human HCT116 cells xenografted in BALB/c mouse assessed as inhibition of tumor growth at 1.5 to 3 mg/kg, ip thrice a week for three weeks; type: functional, organism-based; conditions: dose 1.5-3 mg/kg, time 3.0 weeks
[33] = test system: CT26; assay: Induction of endoplasmic reticulum (ER) stress in mouse CT26 cells assessed as rough long-linear and irregularly dilated with locally verified expansion at 10 to 20 nM measured after 24 hrs by transmission electron microscope (TEM) analysis; type: functional, cell-based; conditions: dose 10-20 nM
[34] = test system: CT26; assay: Induction of mitochondrial damage in mouse CT26 cells at 10 to 40 nM measured after 24 hrs by transmission electron microscope (TEM) analysis; type: functional, cell-based; conditions: dose 10-40 nM

Compound: COc1cc(C(=O)/C(C)=C/c2c[nH]c3cc(F)ccc23)cc(OC)c1OC
- Activity [1]: Active
- Activity [2]: Non-Toxic
- Activity [3]: Active
- Activity [4]: Active
- GI50 [5]: 0.079 µM
- Activity [6]: Non-Toxic
- Activity [7]: Non-Toxic
- Activity [8]: Active
- Activity [9]: Active
- Activity [10]: Active
- Activity [11]: Active
- Activity [12]: Active
- Activity [13]: Active
- inhibition [14]: Dose-Dependent Effect
- IC50 [15]: 0.00206 µM
- Activity [16]: Active
- Activity [17]: 60.1%
- Activity [18]: Active
- Activity [19]: Non-Toxic
- Activity [20]: Non-Toxic
- Activity [21]: 14.5%
- Activity [22]: inactive
- Activity [23]: inactive
- Activity [24]: Non-Toxic
- IC50 [25]: 0.0187 µM
- Activity [26]: inactive
- Activity [27]: Active
- Activity [28]: inactive
- Activity [29]: Active
- Activity [30]: Active
- Activity [31]: 20.1%
- Activity [32]: Active
- Activity [33]: Active
- Activity [34]: Active
